Tests used:
[1] = tested on: Hep 3B2; assay: Cytotoxicity against human Hep3B cells assessed as growth inhibition after 72 hrs by SRB assay; type: functional, cell-based
[2] = tested on: Mahlavu; assay: Cytotoxicity against human Mahlavu cells assessed as growth inhibition after 72 hrs by SRB assay; type: functional, cell-based
[3] = tested on: Huh-7; assay: Disruption of cancer stem cell subpopulation of human HuH7 cells assessed as effect on EpCAM levels at IC100 after 72 hrs by flow cytometric method (reference value: 13.7 to 33%); type: functional
[4] = tested on: Huh-7; assay: Cytotoxicity against human HuH7 cells assessed as growth inhibition after 72 hrs by SRB assay; type: functional, cell-based
[5] = tested on: Huh-7; assay: Disruption of cancer stem cell subpopulation of human HuH7 cells assessed as effect on CD133 levels at IC100 after 72 hrs by flow cytometric method (reference value: 0 to 0.6%); type: functional
[6] = tested on: Mahlavu; assay: Disruption of cancer stem cell subpopulation of human Mahlavu cells assessed as aggressiveness factor at IC100 after 72 hrs by flow cytometric method; type: functional
[7] = tested on: Mahlavu; assay: Disruption of cancer stem cell subpopulation of human Mahlavu cells assessed as effect on CD90 levels at IC100 after 72 hrs by flow cytometric method (reference value: 0.6%); type: functional
[8] = tested on: Hep 3B2; assay: Disruption of cancer stem cell subpopulation of human Hep3B cells assessed as aggressiveness factor at IC100 after 72 hrs by flow cytometric method; type: functional
[9] = tested on: Hep 3B2; assay: Disruption of cancer stem cell subpopulation of human Hep3B cells assessed as effect on CD133 levels at IC100 after 72 hrs by flow cytometric method (reference value: 0 to 0.6%); type: functional
[10] = tested on: SNU-475; assay: Disruption of cancer stem cell subpopulation of human SNU475 cells assessed as effect on CD90 levels at IC100 after 72 hrs by flow cytometric method (reference value: 0.2%); type: functional
[11] = tested on: Huh-7; assay: Disruption of cancer stem cell subpopulation of human HuH7 cells assessed as aggressiveness factor at IC100 after 72 hrs by flow cytometric method; type: functional
[12] = tested on: SNU-475; assay: Disruption of cancer stem cell subpopulation of human SNU475 cells assessed as aggressiveness factor at IC100 after 72 hrs by flow cytometric method; type: functional
[13] = tested on: Hep 3B2; assay: Disruption of cancer stem cell subpopulation of human Hep3B cells assessed as effect on EpCAM levels at IC100 after 72 hrs by flow cytometric method (reference value: 0 to 0.6%); type: functional
[14] = tested on: SNU-475; assay: Cytotoxicity against human SNU475 cells assessed as growth inhibition after 72 hrs by SRB assay; type: functional, cell-based
[15] = biological target: Vascular endothelial growth factor receptor 2 (Homo sapiens, UniProt P35968); assay: Inhibition of N-terminal GST-fused human VEGFR2 C-terminal fragment expressed in Sf9 insect cells using poly(Glu:Tyr) 4:1 as substrate; type: cell-based
Vascular endothelial growth factor receptor 2, sequence (P35968 whole entry, the tested form may be a part): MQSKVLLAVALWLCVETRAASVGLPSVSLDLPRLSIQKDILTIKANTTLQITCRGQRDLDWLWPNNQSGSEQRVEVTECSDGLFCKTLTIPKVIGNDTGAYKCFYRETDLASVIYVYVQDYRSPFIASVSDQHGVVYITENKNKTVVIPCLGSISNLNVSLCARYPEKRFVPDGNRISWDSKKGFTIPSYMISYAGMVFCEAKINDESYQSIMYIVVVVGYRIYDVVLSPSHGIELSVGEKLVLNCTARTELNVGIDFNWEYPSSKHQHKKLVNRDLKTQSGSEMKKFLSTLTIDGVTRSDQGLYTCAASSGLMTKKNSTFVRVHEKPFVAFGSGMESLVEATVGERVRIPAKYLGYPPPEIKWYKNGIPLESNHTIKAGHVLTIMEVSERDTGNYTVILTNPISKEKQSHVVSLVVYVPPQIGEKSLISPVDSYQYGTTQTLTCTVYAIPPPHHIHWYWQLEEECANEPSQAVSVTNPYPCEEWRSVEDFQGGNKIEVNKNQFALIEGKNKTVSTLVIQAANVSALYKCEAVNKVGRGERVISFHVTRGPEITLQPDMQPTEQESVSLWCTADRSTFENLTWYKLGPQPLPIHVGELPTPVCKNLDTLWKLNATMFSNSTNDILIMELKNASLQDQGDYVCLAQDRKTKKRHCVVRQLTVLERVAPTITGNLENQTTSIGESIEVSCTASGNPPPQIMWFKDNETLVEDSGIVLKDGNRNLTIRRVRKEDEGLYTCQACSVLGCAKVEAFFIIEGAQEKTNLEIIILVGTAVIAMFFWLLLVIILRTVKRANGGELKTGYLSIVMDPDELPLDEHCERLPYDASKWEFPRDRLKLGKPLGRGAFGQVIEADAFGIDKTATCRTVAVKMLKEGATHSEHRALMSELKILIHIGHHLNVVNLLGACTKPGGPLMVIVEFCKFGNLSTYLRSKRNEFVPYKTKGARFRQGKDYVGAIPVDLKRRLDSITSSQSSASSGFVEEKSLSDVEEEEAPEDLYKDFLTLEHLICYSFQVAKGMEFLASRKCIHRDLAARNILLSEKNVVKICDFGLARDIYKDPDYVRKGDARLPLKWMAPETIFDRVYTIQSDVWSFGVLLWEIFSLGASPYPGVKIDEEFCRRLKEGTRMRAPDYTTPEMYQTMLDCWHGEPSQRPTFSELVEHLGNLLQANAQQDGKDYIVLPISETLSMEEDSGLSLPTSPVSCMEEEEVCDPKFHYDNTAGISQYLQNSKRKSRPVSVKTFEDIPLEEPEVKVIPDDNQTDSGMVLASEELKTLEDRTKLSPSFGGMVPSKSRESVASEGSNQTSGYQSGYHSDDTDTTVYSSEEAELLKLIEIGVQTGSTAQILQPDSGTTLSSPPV

[16] = biological target: Focal adhesion kinase 1 (Homo sapiens) (UniProt Q05397); assay: Inhibition of FAK phosphorylation at Y397 in human bone marrow mesenchymal stem cells at 1 uM after 1 hr by immunoblot method relative to control
Focal adhesion kinase 1 (Homo sapiens), sequence (Q05397 2-1052 limits assumed): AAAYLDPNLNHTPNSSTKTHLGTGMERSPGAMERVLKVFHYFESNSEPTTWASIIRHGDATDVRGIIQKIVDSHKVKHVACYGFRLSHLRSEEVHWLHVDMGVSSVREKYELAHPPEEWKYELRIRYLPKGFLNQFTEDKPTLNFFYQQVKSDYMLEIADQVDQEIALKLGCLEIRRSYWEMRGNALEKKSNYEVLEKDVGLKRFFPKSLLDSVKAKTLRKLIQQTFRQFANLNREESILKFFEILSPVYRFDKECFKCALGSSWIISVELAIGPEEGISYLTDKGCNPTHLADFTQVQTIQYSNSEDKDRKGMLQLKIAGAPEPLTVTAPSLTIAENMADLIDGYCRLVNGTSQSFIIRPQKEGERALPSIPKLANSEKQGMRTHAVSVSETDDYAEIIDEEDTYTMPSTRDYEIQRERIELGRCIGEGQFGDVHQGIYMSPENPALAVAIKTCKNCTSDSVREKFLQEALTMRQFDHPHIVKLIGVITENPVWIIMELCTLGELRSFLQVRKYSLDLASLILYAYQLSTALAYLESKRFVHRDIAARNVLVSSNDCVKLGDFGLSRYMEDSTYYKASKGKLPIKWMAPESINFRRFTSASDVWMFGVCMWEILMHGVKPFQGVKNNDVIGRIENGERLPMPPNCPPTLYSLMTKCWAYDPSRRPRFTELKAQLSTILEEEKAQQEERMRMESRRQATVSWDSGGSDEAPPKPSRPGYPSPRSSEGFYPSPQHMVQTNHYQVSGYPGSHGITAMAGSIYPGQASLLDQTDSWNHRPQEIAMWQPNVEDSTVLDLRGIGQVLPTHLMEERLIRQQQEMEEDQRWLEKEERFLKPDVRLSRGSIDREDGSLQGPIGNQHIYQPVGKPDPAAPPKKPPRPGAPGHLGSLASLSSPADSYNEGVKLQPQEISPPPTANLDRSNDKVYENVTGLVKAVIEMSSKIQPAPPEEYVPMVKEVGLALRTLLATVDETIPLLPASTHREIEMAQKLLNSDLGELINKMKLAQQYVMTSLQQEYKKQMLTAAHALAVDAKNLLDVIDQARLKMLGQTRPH

[17] = biological target: Focal adhesion kinase 1 (Homo sapiens) (UniProt Q05397); assay: Inhibition of FAK phosphorylation at Y397 in human bone marrow mesenchymal stem cells at 5 uM after 1 hr by immunoblot method relative to control
[18] = Homo sapiens, Hep3B, 72 h, read-out: IC50
[19] = Homo sapiens, Mahlavu, 72 h, read-out: IC50
[20] = Homo sapiens, Huh-7, 72 h, read-out: IC50
[21] = Homo sapiens, SNU-475, 72 h, read-out: IC50

SMILES | IC50 [1, 18] | IC50 [2, 19] | Activity [3] | IC50 [4, 20] | Activity [5] | fold change (FC) [6] | Activity [7] | fold change (FC) [8] | Activity [9] | Activity [10] | fold change (FC) [11] | fold change (FC) [12] | Activity [13] | IC50 [14, 21] | other results
CNC(=O)c1cc(Oc2ccc(NC(=O)Nc3ccc(Cl)c(C(F)(F)F)c3)cc2)ccn1.Cc1ccc(S(=O)(=O)O)cc1 [SORAFENIB TOSYLATE] | 1.5 µM | 0.7 µM | 31.8% | 1.6 µM | 0.2% |  |  |  |  |  |  |  |  |  | 
C[C@H](NC(=O)Cc1cc(F)cc(F)c1)C(=O)N[C@H](C(=O)OC(C)(C)C)c1ccccc1 | 5 µM | 5 µM | 10.2 - 26.7% | 5 µM |  | 0.2 | 0.1% | 0.7 | 0% | 0.1% | 0.8 | 0.5 | 68.8% | 0.6 µM | 
COC1=CC(=O)C(C)=C([S+]([O-])c2ccc(C)cc2)C1=O (racemic) | 4.3 µM | 11.6 µM | 41.3% | 5.5 µM | 0.8% | 2.2 | 1.3% | 1.1 | 0% | 0.4% | 1.3 | 2 | 84.9% | 6.1 µM | 
COC1=CC(=O)C([S@@+]([O-])c2ccc(C)cc2)=CC1=O | 9.9 µM | 11.3 µM | 29.1% | 10.6 µM | 0.3% | 2.3 | 1.4% | 1.1 | 0% | 0.4% | 0.9 | 2 | 84.7% | 9 µM | 
CCS(=O)(=O)c1ccc(OC)c(Nc2ncc(-c3cc(-c4ccccn4)cc(-c4ccccn4)c3)o2)c1 | 2 µM | 3 µM | 31.6% | 2.8 µM | 0.4% |  |  | 2.9 |  |  | 2.3 |  |  |  | 
CCOC1=CC(=O)C(C)=C([S@@+]([O-])c2ccc(C)cc2)C1=O | 12 µM | 18.3 µM | 40.6% | 7 µM | 0.3% | 1.7 | 1% | 1 | 0% | 0.1% | 1.2 | 0.5 | 80.1% | 5.5 µM | 
CCS(=O)(=O)c1ccc(OC)c(Nc2nc(-c3cccc(-c4ccccn4)c3)co2)c1 | 0.9 µM | 1.1 µM | 23.7% | 0.4 µM | 0.1% |  |  | 2.6 |  |  | 1.7 |  |  |  | IC50 [15]: 564 µM
CCS(=O)(=O)c1ccc(OC)c(Nc2ncc(-c3cccc(-c4cc[nH]c4)c3)o2)c1 | 2.1 µM | 0.8 µM | 32.1% | 1.7 µM | 0.9% |  |  | 2.1 |  |  | 2.3 |  |  |  | IC50 [15]: 0.018 µM
COC1=CC(=O)C(C)=C([S@@+]([O-])c2ccc(C)cc2)C1=O | 5.5 µM | 14.5 µM | 35.8% | 8 µM | 0.5% | 1.3 | 0.8% | 1.1 | 0% | 0.1% | 1.1 | 0.5 | 87.8% | 10.5 µM | 
Cc1ccc([S@+]([O-])C2=C(Cl)C(=O)C=CC2=O)cc1 |  |  | 24.7% |  | 0.2% | 0.8 | 0.5% | 1 | 0% | 0.3% | 0.7 | 1.5 | 76% |  | IC50 ([1]; hep 3b2): Not Active; IC50 ([2]; mahlavu): Not Active; IC50 ([4]; huh-7): Not Active; IC50 ([14]; snu-475): Not Active
Cc1ccc([S@+]([O-])C2=CC(=O)C=CC2=O)cc1 | 17.4 µM | 31.3 µM | 30.6% | 20 µM | 0.2% | 0.3 | 0.2% | 1.1 | 0% | 0% | 0.9 | 0 | 81.4% | 0.3 µM | 
CO[C@H]1[C@@H](OC)C[C@H](C)[C@@H](OC)C2=CC(=O)C=C(NC(=O)/C(C)=C/C=C\[C@H](OC)[C@@H](OC(N)=O)/C(C)=C/[C@@H]1C)C2=O |  |  |  |  |  |  |  |  |  |  |  |  |  |  | inhibition [16]: 61%; inhibition [17]: 78%
CCS(=O)(=O)c1ccc(OC)c(Nc2ncc(-c3cccc(-c4ccccn4)c3)o2)c1 | 0.7 µM | 1.2 µM | 23.9% | 1.5 µM | 0.1% |  |  | 1.7 |  |  | 1.7 |  |  |  | 
